Laboratory results from US20120184006A1, “Reductase Enzymes” (UTAH STATE UNIVERSITY, priority 2011, published 2012).

Tests used:
[1] = target: T1, fatty acyl-CoA reductase (FACoAR) from M. aquaeolei VT8 (Marinobacter nauticus (Marinobacter aquaeolei), UniProt A1U3L3); assay: Continuous spectrophotometric DTNB assay (release of free CoA); assay type: biochemical; details: for Rate of Reaction (nmol NTB^2− min^−1 mg protein^−1): 6 μM of the respective CoA as substrate; for % Specific Activity of Palmitoyl-CoA: percent of the specific activity of palmitoyl-CoA, 6 μM substrate
T1 sequence (A1U3L3 1-661): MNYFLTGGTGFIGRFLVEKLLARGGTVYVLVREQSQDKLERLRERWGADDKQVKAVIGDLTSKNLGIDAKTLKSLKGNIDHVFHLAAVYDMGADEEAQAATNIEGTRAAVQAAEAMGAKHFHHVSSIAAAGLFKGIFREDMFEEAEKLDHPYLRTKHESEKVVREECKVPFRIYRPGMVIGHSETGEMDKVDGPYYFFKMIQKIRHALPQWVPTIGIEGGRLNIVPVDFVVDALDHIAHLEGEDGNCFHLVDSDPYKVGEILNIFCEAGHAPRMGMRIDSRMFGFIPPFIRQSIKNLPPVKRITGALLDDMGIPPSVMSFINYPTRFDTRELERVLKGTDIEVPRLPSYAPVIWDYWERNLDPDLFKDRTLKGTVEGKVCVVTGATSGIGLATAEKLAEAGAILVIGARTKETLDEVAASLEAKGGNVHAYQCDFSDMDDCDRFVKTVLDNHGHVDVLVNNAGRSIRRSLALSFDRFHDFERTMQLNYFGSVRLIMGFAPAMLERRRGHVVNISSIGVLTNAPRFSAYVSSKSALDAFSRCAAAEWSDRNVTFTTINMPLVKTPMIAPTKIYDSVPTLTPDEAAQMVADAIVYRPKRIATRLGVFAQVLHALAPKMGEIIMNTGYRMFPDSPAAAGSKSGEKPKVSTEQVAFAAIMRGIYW
Experimental: Buffers and solutions were prepared as described above for NADPH assays. Each assay was conducted by adding 75 μL of the 2 mg/mL NADPH stock solution in buffer, 58 μg of protein, and 10 μL of a 10 mg/mL solution of DTNB in DMSO, varying concentrations of acyl-CoA and buffer to bring the volume to 1 mL. Reduction of acyl-CoA substrate was monitored by following the increase of the 2-nitro-5-thiobenzoate (NTB^2−) dianion concentration at 412 nm. […] These initial rates were used to calculate the apparent K, and Vmax values using the Igor Pro (Wavemetrics, Lake Oswego, Oreg.) software package fitting the initial rates to the Hill equation (Equation 1) where v is the initial velocity, Vmax is the maximum calculated velocity, [S]^n is the concentration of substrate and n is the Hill coefficient, K0.5^n is the approximation of Km or the approximate substrate concentration at which half of Vmax is obtained at a specific value of the Hill coefficient n. In the case of enzyme inhibition, a modified version of the Hill equation allowing for cooperative inhibition (Equation 2) where all of the coefficients are defined as for the Hill equation and the additional [i]^n is the concentration of inhibitor and n is the Hill coefficient. The Ki^n is the approximate concentration of inhibitor it takes to double the K0.5 at a specific value of the Hill coefficient n.

[2] = test system: FACoAR from M. aquaeolei VT8; assay: Initial activity assay, products identified by TLC and GC; assay type: biochemical, Marinobacter aquaeolei VT8; details: 200 μM substrate, NADPH
Experimental: Initial activity assays were conducted using thin layer chromatography (TLC) and a gas chromatography (GC) assay similar to that described previously (29). To test activity, 0.3 mg of protein was added to a reaction vessel along with 200 μM palmitoleyl-CoA and 800 μM NADPH, NADH, NADP^+, NAD^+ in reaction buffer containing 20 mM Tris-HCl pH 7.0 and 50 mM NaCl. Reactions were allowed to proceed for 1 hr before quenching by the addition of 2 mL of hexane. The hexane water mixture was vortexed vigorously for 30 seconds before centrifuging to separate phases. The hexane phase was removed to a clean container and the solvent was removed under a stream of argon. […] The TLC plate was developed in a 2:15:90 volumetric ratio of glacial acetic acid:ethyl ether:hexane. After development, visualization was performed in a sealed jar with iodine crystals for 10 min. The TLC results were verified by GC analysis of the sample prepared in the same way and compared to retention times of known standards.

[3] = target: T1, fatty acyl-CoA reductase (FACoAR) from M. aquaeolei VT8; assay: Continuous spectrophotometric NADPH assay (decrease of NADPH at 340 nm); assay type: biochemical; details: FIG. 5, NADPH assay, acyl-CoA substrate
Experimental: All assays were conducted in a total volume of 1 mL. A buffer containing 50 mM NaCl, 20 mM Tris-HCl pH 7.0, and 0.5 mg/mL BSA was prepared along with a 1 mM stock of aldehyde dissolved in dimethyl sulfoxide (DMSO) or a 0.1 mM stock of the acyl-CoA, and […] NADPH. All components including protein were degassed in sealed vials and placed under an argon atmosphere. NADPH was degassed as the solid prior to the addition of degassed buffer. Each assay was conducted by adding 75 μL of the NADPH stock, 58 μg protein for acyl-CoA assays or 15 μg protein for aldehyde assays, varying concentrations of aldehyde or acyl-CoA and buffer to bring the final volume to 1 mL. Each sample was continuously monitored for the decrease of NADPH at 340 nm on a Varian 50 Bio UV-visible spectrophotometer (Walnut Creek, Calif.). Initial rates were calculated in Excel using the linear initial rates of reaction obtained from the spectrophotometric assays by obtaining the slope from the best. In line and calculating nmol of NADPH oxidized per second. (Microsoft, Redmond, Wash.). These initial rates were used to calculate Km and Vmax values using the Igor Pro software package (Wavemetrics, Lake Oswego, Oreg.) fitting the initial rates to the Hill equation (31). NADPH specific activity assays were conducted identically as described above using a fixed 60 μM concentration of the various aldehyde substrates or 6 μM of the various acyl-CoA substrates.

[4] = target: T1, fatty acyl-CoA reductase (FACoAR) from M. aquaeolei VT8; assay: Palmitoyl CoA inhibition of fatty aldehyde (cis-11-hexadecenal) reduction; assay type: biochemical; details: competitive inhibition of cis-11-hexadecenal reduction; 0, 1, 2, 4 μM inhibitor; fit to equation 2; read-out: apparent Ki
Experimental: The (◯) denote assays performed with 0 μM palmitoyl CoA, ([…]) denote assays performed with 1 palmitoyl CoA, (□) denote assays performed with 2 μM palmitoyl CoA, and (Δ) denote assays performed with 4 μM palmitoyl CoA. Specific activities are plotted in units of nmol NADP^+ min^−1 mg protein^−1. All assays were conducted in triplicate and are shown with error bars indicating SEM fit to equation 1 in the materials and methods section. The apparent Ki was determined by fitting all four data sets to equation 2 in the materials and methods.
All assays were conducted in a total volume of 1 mL. A buffer containing 50 mM NaCl, 20 mM Tris-HCl pH 7.0, and 0.5 mg/mL BSA was prepared along with a 1 mM stock of aldehyde dissolved in dimethyl sulfoxide (DMSO) or a 0.1 mM stock of the acyl-CoA, and 2.0 trig/mL NADPH. […] Each sample was continuously monitored for the decrease of NADPH at 340 nm on a Varian 50 Bio UV-visible spectrophotometer (Walnut Creek, Calif.). Initial rates were calculated in Excel using the linear initial rates of reaction obtained from the spectrophotometric assays by obtaining the slope from the best. […]
Buffers and solutions were prepared as described above for NADPH assays. […] Reduction of acyl-CoA substrate was monitored by following the increase of the 2-nitro-5-thiobenzoate (NTB^2−) dianion concentration at 412 nm. […]

Row | SMILES | Rate of Reaction (nmol NTB^2− min^−1 mg protein^−1) [1] | % Specific Activity of Palmitoyl-CoA [1] [%] | detectable product of reduction [2] | Vmax when CoA release was monitored [1] [nmol/min/mg] | maximal specific activity (CoA release) [1] | n (Hill coefficient) ([1]; FIG. 5, DTNB assay) | Vmax ([1]; FIG. 5, DTNB assay, release of free CoA, Hill fit, substrate) | n (Hill coefficient) [3] | Vmax ([3]; Hill fit) | Ki [4] [nM]
1 | CCCCCC/C=C\CCCCCCCC(=O)SCCNC(=O)CCNC(=O)[C@H](O)C(C)(C)COP(=O)(O)OP(=O)(O)OC[C@H]1O[C@@H](n2cnc3c(N)ncnc32)[C@H](O)[C@@H]1OP(=O)(O)O [Palmitoleyl-CoA] | 53.7 ± 1.1 nmol NTB^2− min^−1 mg protein^−1 | 93 | palmitoleyl alcohol | – | – | – | – | – | – | –
2 | CCCCCCCCCCCCCCCC(=O)SCCNC(=O)CCNC(=O)[C@H](O)C(C)(C)COP(=O)(O)OP(=O)(O)OC[C@H]1O[C@@H](n2cnc3c(N)ncnc32)[C@H](O)[C@@H]1OP(=O)(O)O [Palmitoyl-CoA] | 54.7 ± 4.7 nmol NTB^2− min^−1 mg protein^−1 | 100 | – | ~180 | 115 nmol of NTB/min/mg protein | 2.8±0.7 | 115±7 nmol NTB^−2 min^−1 mg of protein^−1 | 2.6±0.3 | 197±8 nmol NADP^+ min^−1 mg of protein^−1 | 1900 ± 260
